Experiments:
[1] = test system: peripheral blood leukocytes (PBLs) on P-selectin and ICAM-1; assay: Autoperfused microflow chamber assay, chamber coated with P-selectin and ICAM-1; assay type: in vivo; details: metabolite administered to mice with laser-induced CNV; for Leucocyte rolling: FIGS. 9A-D
Method: Autoperfused microflow chamber assay. Leukocyte rolling velocity was analyzed using the autoperfused microflow chamber assay.^33,43 In brief, translucent microchambers (0.4×0.04×50 mm; VitroCom) were coated overnight at 4° C. with either recombinant murine P-selectin, or combination P-selectin and ICAM1 (R&D Systems) at a concentration of 5 μg/ml each. The microchambers were then connected at both ends to biocompatible polyester tubing (PE10, Becton Dickinson). Thereafter, both the tubing and microchamber were incubated with 0.1% bovine serum albumin (Sigma-Aldrich) for 1 h to block nonspecific leukocyte interaction with their inner surfaces. The free ends of the tubing were then connected microsurgically to the right carotid artery and left jugular vein of an anesthetized mouse. In this system, blood flows from the carotid artery into the biocompatible inlet tubing, passes through the microchamber, and reenters the animal's body via the outlet tubing and jugular vein. The rate of blood flow is regulated by adjustment of the diameter of the inlet tubing with a screw valve. Microtransducers (Harvard Apparatus) attached to the chamber by three-way connectors embedded before and after the microchamber allow the continuous measurement of blood pressure. The analog output of the microtransducers unit was digitalized with an A/D converter (ML785 PowerLab/8SP, ADInstruments) connected to a PC computer running CHART V7 software (ADInstruments). The measured values at the inlet and outlet of the microchamber were used to calculate the pressure drop (ΔP). […] Ten different fields of view were recorded for at least 30 seconds. Leukocyte rolling velocity was determined from the displacement of individual cells interacting with the chamber surface over time (Δd/Δt). The displacement of leukocytes was determined using image J software 1.46 (NIH). Flux was defined as the number of interacting leukocytes per field of view, averaged over 10 independent field of views. To account for the hemodynamic conditions within the chamber, the blood pressure before the inlet and after the outlet of the chamber was measured, from which the drop of pressure Δp and the shear stress were derived

laser-induced CNV [2] = assay: Laser-induced CNV, vascular leakage by fluorescein angiography; assay type: in vivo, mice; details: 7 days after CNV induction; for Vascular leakage after CNV induction: intraperitoneal daily, 5 or 50 μg/kg/day, vs vehicle
Method: (§1) Laser-induced model of CNV. Laser photocoagulation was performed 2 weeks after the onset of feeding with the ω-3 or ω-6 LCPUFA diets with the use of a 532-nm laser (Oculight GLx Laser System, IRIDEX) attached to a slitlamp, with a coverslip being used to applanate the cornea in order to afford a view of the posterior pole of the eye. Four lesions located at the 3, 6, 9, and 12 o'clock meridians centered on the optic nerve (size and leakage studies) or 10 lesions (protein and mRNA analysis) were induced in both eyes with the same settings: spot size of 100 μm, pulse duration of 0.1 s, and laser power of 100 mW.^25 The lesions were located two or three disc diameters from the optic nerve. Laser-induced disruption of Bruch's membrane was identified by the appearance of a bubble at the site of photocoagulation. […] One investigator executed all laser photocoagulation.
Fluorescein angiography. Fluorescein angiography was performed with a camera and imaging system (TRC 50 VT camera and IMAGEnet 1.53 system,
Topcon) at 5 and 7 days after laser photocoagulation. Photographs were captured with a 20-diopter lens in contact with the fundus camera lens after intraperitoneal injection of 0.1 ml of 2% fluorescein sodium (Akorn). […] Lesions were graded according to a previously established scheme as follows: 0 (not leaky), faint hyperfluorescence or mottled fluorescence without leakage; 1 (questionable leakage), hyperfluorescent lesion without progressive increase in size or intensity; 2A (leaky), hyperfluorescence increasing in intensity but not in size; 2B (clinically significant leakage), hyperfluorescence increasing in intensity and in size.^42

laser-induced CNV [3] = assay: Laser-induced CNV, lesion size in choroidal flat-mounts stained with isolectin B4; assay type: in vivo, mice; details: 7 days after CNV induction; for Protection from laser-induced CNV (choroidal flatmount): intraperitoneal daily, 5 or 50 μg/kg/day, vs vehicle
Method: as §1
Choroid flat-mount preparation. For evaluation of the size of CNV lesions, mice were anesthetized with Avertin (Sigma) and sacrificed by cervical dislocation at 5 or 7 days after laser photocoagulation. The eyes were removed and fixed in 4% paraformaldehyde for 60 min at room temperature, the cornea and lens were removed, and the entire retina was carefully dissected from the eyecup. Radial cuts (average, eight) were made from the edge of the eyecup to the equator, and the preparation was then washed with ice-cold PBS containing 0.3% Tween 20.^41 For visualization of vessels, the eyecup was stained overnight at room temperature with Alexa Fluor 488—conjugated Griffonia (Bandeiraea) simplicifolia isolectin B4 (Invitrogen) at a dilution of 1:100. The eyecup was flat-mounted on Superfrost/Plus microscope slides (Fisher) in SlowFade Antifade reagent (Invitrogen) with the sclera facing down and the choroid facing up. Fluorescence images of choroidal flat-mounts were captured with a Zeiss AxioCam MRm camera and Zeiss AxioObserver.Z1 microscope. The CNV area was measured with the use of Image J software.

CD18 = assay: Flow cytometric analysis of CD18 on PBLs; assay type: in vivo, mice; details: metabolite administered, laser-induced CNV model
Method: (§2) Isolation of PBLs for flow cytometric analysis. Blood freshly collected from the mouse heart with an EDTA-treated syringe was incubated for 30 min on ice with phycoerythrin-conjugated rat monoclonal antibodies to CD11b (M1/70, BD Biosciences) or to CD18 (C71/16, BD Biosciences), or with isotype control antibodies, at a ratio of 1 μg per 1×10^6 total cells. Red blood cells were lysed with the use of Easy-Lyse (Leinco Technologies), and the remaining cells were isolated by centrifugation and resuspended in PBS on ice for immediate flow cytometric analysis. PBLs were gated according to their characteristic forward and side scatter with the use of a Cytomics FC500 instrument (Beckman Coulter), and data were analyzed with FlowJo 10.0 software […].

laser-induced CNV [4] = assay: Laser-induced CNV, cross-sectional lesion area by SD-OCT; assay type: in vivo, mice; details: 7 days after CNV induction; for Protection from laser-induced CNV (SD-OCT): intraperitoneal daily, 5 or 50 μg/kg/day, vs vehicle
Method: as §1
Spectral domain optical coherence tomography (SD-OCT). SD-OCT was performed with a Bioptigen system at 5 and 7 days after laser photocoagulation. Mice were anesthetized with Avertin (Sigma) and positioned on a custom cassette that allowed three-dimensional free rotation for alignment of the eye for imaging. Hydration with normal saline was used to preserve corneal clarity. The B-scan were performed with 100 horizontal, raster, and consecutive B-scan lines, each one composed of 1000 A-scans. The area size was 1.4 by 1.4 mm. The software was able to generate an en face fundus image with the reflectance information obtained from the OCT sections (volume intensity projection), so that a point-to-point correlation between OCT and fundus position was possible and accurate. For evaluation of the cross-sectional size of each lesion in OCT images, the sections passing through the center of the CNV were chosen. […] We narrowed and positioned it to the level of the retinal pigment epithelium—choroid complex, so that the area of the retinal pigment epithelium—Bruch's membrane rupture was readily identifiable in the fundus image as a hyporeflective spot.^25

CD11b = assay: Flow cytometric analysis of CD11b on PBLs; assay type: in vivo, mice; details: metabolite administered, laser-induced CNV model
Method: as §2

PPARγ = PPARγ activity in retinal nuclear extracts (ELISA-based TransAM kit); assay type: in vivo; details: ω-3-fed mice, IP daily 1 mg/kg, 7 days after CNV induction
Method: Measurement of PPARγ activity. The retinas (n=8) of mice were pooled to reduce biological variability and were homogenized in an ice-cold hypotonic buffer (ActiveMotif) for preparation of a nuclear fraction. The nuclear extract (20 μg of protein) was assayed for PPARγ activity with the use of an ELISA-based TransAM kit (ActiveMotif).

[5] = ω-3 LCPUFA diet, IP daily 1 mg/kg

SMILES | Leucocyte rolling [1] | Systemic leukocyte recruitment during CNV [1] | Vascular leakage after CNV induction (laser-induced CNV [2]) | Protection from laser-induced CNV (choroidal flatmount) (laser-induced CNV [3]) | Protection from laser-induced CNV (SD-OCT) (laser-induced CNV [4]) | also measured
CCCCC/C=C\C/C=C\CC1OC1C/C=C\CCCC(=O)O (stereo not shown) [8,9-EET, reference compound] | increased leucocyte rolling |  |  |  |  | 
CCCCC/C=C\C[C@H]1O[C@H]1C/C=C\C/C=C\CCCC(=O)O [11,12-EET, reference compound] | increased leucocyte rolling |  |  |  |  | 
CCCCCC1OC1C/C=C\C/C=C\C/C=C\CCCC(=O)O (stereo not shown) [14,15-EET, reference compound] | increased leucocyte rolling |  |  |  |  | 
CCC1OC1C/C=C\C/C=C\C/C=C\C/C=C\CCCC(=O)O (stereo not shown) [17,18-EEQ, 17,18-epoxyeicosatetraenoic acid] | decreased rolling | reduces | significantly decreased | significant and dose-dependent protection | significant and dose-dependent protection | CD18 in peripheral blood leukocytes (CD18): suppresses
CCC1OC1CC=CCC=CCC=CCC=CCC=CCCC(=O)O (stereo not shown) [19,20-EDP, 19,20-epoxydocosapentaenoic acid] | decreased rolling | reduces | significant protection | significant protection | significant protection | CD11b in peripheral blood leukocytes (CD11b): suppresses
O=C(Nc1ccccc1)c1cc([N+](=O)[O-])ccc1Cl [GW9662, reference compound] |  |  |  |  |  | Effect on the protective effects of ω3-LCPUFAs on leakage (laser-induced CNV [2]; [5]): significantly reduces; Effect on the protective effects of ω3-LCPUFAs on CNV size (choroidal flat-mount) (laser-induced CNV [3]; [5]): significantly reduces; Effect on the protective effects of ω3-LCPUFAs on CNV size (SD-OCT) (laser-induced CNV [4]; [5]): significantly reduces; Activity of PPARγ in the retina (PPARγ): significantly reduces

Reference: patent publication US10413518B2, “CYP450 lipid metabolites reduce inflammation and angiogenesis” (Massachusetts Eye and Ear Infirmary, priority 2013, dated 2019)
